Data from ChEMBL document CHEMBL1145207, “Discovery of novel quinoline-based estrogen receptor ligands using peptide interaction profiling” (J Med Chem, 2005).

Tests used:
Estrogen receptor [1] = target: Estrogen receptor (Homo sapiens, UniProt Q92731+P03372); conditions: ishikawa
Estrogen receptor [2] = target: T1, Estrogen receptor (Homo sapiens, UniProt P03372)
T1 sequence (P03372 whole entry): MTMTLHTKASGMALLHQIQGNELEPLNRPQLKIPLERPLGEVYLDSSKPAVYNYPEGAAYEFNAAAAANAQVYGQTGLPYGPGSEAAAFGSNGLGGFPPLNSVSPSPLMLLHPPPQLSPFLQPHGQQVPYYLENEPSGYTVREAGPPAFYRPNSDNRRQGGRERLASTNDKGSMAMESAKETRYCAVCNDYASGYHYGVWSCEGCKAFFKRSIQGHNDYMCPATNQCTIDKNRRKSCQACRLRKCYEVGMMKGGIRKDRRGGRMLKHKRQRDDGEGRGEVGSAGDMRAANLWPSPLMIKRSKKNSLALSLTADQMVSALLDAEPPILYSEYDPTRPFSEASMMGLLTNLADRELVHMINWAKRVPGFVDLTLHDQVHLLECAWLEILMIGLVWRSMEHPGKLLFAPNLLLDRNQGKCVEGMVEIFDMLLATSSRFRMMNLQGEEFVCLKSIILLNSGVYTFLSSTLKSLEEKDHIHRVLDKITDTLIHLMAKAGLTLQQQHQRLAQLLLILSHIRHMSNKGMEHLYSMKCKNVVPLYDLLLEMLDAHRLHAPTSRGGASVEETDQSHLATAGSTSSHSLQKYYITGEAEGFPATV
Description: Binding affinity for human estrogen receptor alpha

Estrogen receptor beta [3] = target: T2, Estrogen receptor beta (Homo sapiens, UniProt Q92731)
[4] = target: T3, Estrogen receptor (Homo sapiens) (UniProt P03372)
T3 sequence (whole entry): T1 sequence (P03372 whole entry)
Description: Mean fluorescence intensity corrected to basal for GW-5638 selective peptide binding to human estrogen receptor alpha

Estrogen receptor beta [5] = target: T2, Estrogen receptor beta; test: Binding affinity for human estrogen receptor beta

T2 sequence (Q92731 whole entry): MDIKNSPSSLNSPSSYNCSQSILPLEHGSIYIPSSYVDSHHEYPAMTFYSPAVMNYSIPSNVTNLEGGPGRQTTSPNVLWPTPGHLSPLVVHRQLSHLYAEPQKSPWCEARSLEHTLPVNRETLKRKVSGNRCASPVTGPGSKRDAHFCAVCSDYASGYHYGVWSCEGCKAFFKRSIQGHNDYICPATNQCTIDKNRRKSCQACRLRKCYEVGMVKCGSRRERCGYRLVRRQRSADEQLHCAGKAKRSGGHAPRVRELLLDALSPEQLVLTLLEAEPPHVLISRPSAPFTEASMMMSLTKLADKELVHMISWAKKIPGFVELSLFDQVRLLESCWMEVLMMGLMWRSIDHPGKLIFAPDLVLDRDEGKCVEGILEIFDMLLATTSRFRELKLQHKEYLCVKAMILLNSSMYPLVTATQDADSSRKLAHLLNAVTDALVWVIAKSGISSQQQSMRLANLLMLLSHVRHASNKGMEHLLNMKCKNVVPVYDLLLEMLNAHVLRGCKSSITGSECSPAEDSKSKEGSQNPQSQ

SMILES | Log IC50 (Estrogen receptor [1]) | Ki (Estrogen receptor [2]) [nM] | Ki (Estrogen receptor beta [3]) [nM] | MFI [4] | Ki (Estrogen receptor beta [5]) [nM]
CCc1nc2cc(O)ccc2c(Oc2ccc(/C=C/C(=O)N3CCCCC3)cc2)c1-c1ccccc1 | -8.4 | 25.1 | 25.1 | 390 | –
CCc1nc2cc(O)ccc2c(Oc2ccc(/C=C/C(=O)O)cc2)c1-c1ccccc1 | – | – | – | 1380 | –
CCc1nc2cc(O)ccc2c(Oc2ccc(/C=C/C(=O)O)cc2)c1-c1cccc(C(F)(F)F)c1 | -8.1 | 100 | 251 | 1590 | –
CCc1nc2cc(O)ccc2c(Oc2ccc(/C=C/C(=O)NC(C)C)cc2)c1-c1ccccc1 | -7.7 | 10 | 15.8 | 710 | –
CCc1nc2cc(O)ccc2c(Oc2ccc(/C=C/C(N)=O)cc2)c1-c1ccccc1 | -7.1 | 15.8 | 25.1 | 540 | –
CC/C(=C(\c1ccc(O)cc1)c1ccc(/C=C/C(=O)O)cc1)c1ccccc1 | – | – | – | 1320 | –
CCc1nc2cc(O)ccc2c(Oc2ccc(OCCN(C)C)cc2)c1-c1ccccc1 | -8.5 | 7.94 | 10 | 0 | –
CCc1nc2cc(O)ccc2c(Oc2cccc(/C=C/C(=O)O)c2)c1-c1ccccc1 | – | 1580 | – | – | 1580
O=C(O)/C=C/c1ccc(Oc2c(-c3ccccc3)c(-c3ccccc3)nc3cc(O)ccc23)cc1 | -5.6 | 3160 | 631 | – | –
CCc1nc2cc(O)ccc2c(Oc2ccc(/C=C/C(=O)N(C)C)cc2)c1-c1ccccc1 | -8.4 | 10 | 20 | 350 | –
